Tests used:
[1] = test system: Venturia inaequalis; experiment: In vivo fungicidal activity, Apple Scab (AS); conditions: rate 400 ppm, host plants sprayed then inoculated, rating, averaged
Method: (§1) Test compounds are dissolved in acetone and diluted with deionized water containing about 0.05% TWEEN 20®, a polyoxyethylene sorbitan monolaurate surfactant manufactured by Atlas Chemical Industries, to give a concentration of 400 ppm. Subsequent dilutions are made with an 0.05% aqueous solution of TWEEN 20®.
(§2) Host plants are sprayed with test solution, dried and inoculated with fungi. When disease symptom development is optimal, the plants are rated for disease control according to the rating scale shown below. Each test contains inoculated treated plants, inoculated untreated plants and a reference standard.
(§3) When more than one test is run, the data are averaged.

[2] = test system: Plasmopara viticola; experiment: In vivo fungicidal activity, Grape Downy Mildew (GDM); conditions: rate 400 ppm, rating, averaged
Method: as §1, §2, §3

[3] = test system: Cercospora beticola; experiment: In vivo fungicidal activity, Sugarbeet Cercospora (SBC); conditions: rating, averaged
Method: as §1, §2, §3

[4] = test system: Puccinia recondita, tritici; experiment: In vivo fungicidal activity, Wheat Leaf Rust (WLR); conditions: rate 400 ppm, rating, averaged
Method: as §1, §2, §3

[5] = test system: Erysiphe graminis, tritici; experiment: In vivo fungicidal activity, Wheat Powdery Mildew (WPM); conditions: rate 400 ppm, rating, averaged
Method: as §1, §2, §3

[6] = test system: Pythium ultimum; experiment: In vitro fungicidal activity, mycelial growth inhibition on agar (Pyth); assay type: cell-based; conditions: Globisporangium ultimum, 48 h, two days
Method: (§4) Test compounds are dissolved in acetone, diluted with sterile, deionized water and mixed with a partially cooled, autoclaved, chemically defined agar medium. This mixture is poured into several 100mm x 15mm sterile plastic plates and allowed to solidify. The surface of each plate is inoculated with a single disc of mycelium and agar cut with an 8mm diameter cork borer from actively growing cultures of assay fungi on a chemically defined agar medium. The plates are incubated at room temperature. Growth inhibition is determined when the mycelial growth on unamended control media has reached the edge of the petri plates. The time interval varies depending on the growth rate of the fungus; two days for Pythium ultimum (pyth) and Rhizoctonia solani (Rhiz) , five days for Botrytis cinerea (Betry) and 7-10 days for Pseudocercosporella herpotrichoides (Pseudo). Each colony diameter is measured and compared with the untreated control and the percent inhibition is calculated as follows: [formula] Each test includes a solvent blank consisting of the formulation without a test compound in addition to the untreated control.
(§5) Assay fungi include the plant pathogens, Pythium ultimum (Pyth) and Rhizoctonia solani (Rhiz).
(§6) When more than one test is run the data are averaged.

[7] = test system: Rhizoctonia solani; experiment: In vitro fungicidal activity, mycelial growth inhibition on agar (Rhiz); assay type: cell-based; conditions: 48 h, two days
Method: as §4, §5, §6

[8] = test system: Spodoptera eridania, 3rd instar larvae, southern armyworm; experiment: Southern armyworm 3rd instar test, dipped limabean leaf; assay type: in vivo; set-up: key: 0: no effect; 10-25% kill; 26-35% kill; 36-45% kill; 46-55% kill; 56-65% kill; 66-75% kill; 76-85% kill; 86-99% kill; 9: 100% kill; conditions: for ARMYWORM Day 3: rating at 3 days; for ARMYWORM Day 5: rating at 5 days
How it was run: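 Compound dissolved in 35% acetone/water at 10,000 ppm stock, diluted with water. Sieva limabean leaves dipped 3 s, dried, and exposed to ten 3rd instar larvae on damp filter paper. Mortality, reduced feeding and molting interference scored at 3 and 5 days on a rating scale.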

## N#Cc1c(Br)c(Br)n(CSc2ccccc2)c1-c1ccc(C(F)(F)F)cc1 [Example 45, 4,5-dibromo-1-[(phenylthio)methyl]-2-(alpha, alpha,alpha-trifluoro-p-tolyl)pyrrole-3-carbonitrile]
[1]
  Disease Control AS: 0 (0)
[2]
  Disease Control GDM: 0 (0)
[3]; rate 25 ppm
  Disease Control SBC: 6.0
[3]; rate 100 ppm
  Disease Control SBC: 7.0
[3]; rate 400 ppm
  Disease Control SBC: 7.5
[4]
  Disease Control WLR: 6.0
[5]
  Disease Control WPM: 1.0
[6]; rate 1 ppm in agar
  inhibition at 1 ppm: 0%
[6]; rate 10 ppm in agar
  inhibition at 10 ppm: 7%
[6]; rate 25 ppm in agar
  inhibition at 25 ppm: 4.5%
[7]; rate 1 ppm in agar
  inhibition at 1 ppm: 0%
[7]; rate 10 ppm in agar
  inhibition at 10 ppm: 3.5%
[7]; rate 25 ppm in agar
  inhibition at 25 ppm: 2%
[8]; 100 ppm
  ARMYWORM Day 3: 0
  ARMYWORM Day 5: 0
[8]; 1000 ppm
  ARMYWORM Day 3: 8 (86-99% kill)
  ARMYWORM Day 5: 8 (86-99% kill)

From patent EP0545103A1, “Insecticidal, acaricidal and molluscicidal 1-(substituted) thioalkylpyrroles” (priority 1991, dated 1993)
